Results as given in ChEMBL document CHEMBL3627713, “Triazole linked mono carbonyl curcumin-isatin bifunctional hybrids as novel anti tubulin agents: Design, synthesis, biological evaluation and molecular modeling studies” (Bioorg Med Chem, 2015).

What was measured:
Tubulin = test: Inhibition of tubulin (unknown origin) polymerization after 1 hr by ELISA plate reader analysis; assay type: protein-complex assay, Homo sapiens
PC-3 [1] = test: Cytotoxicity against human PC3 cells assessed as growth inhibition after 48 hrs by sulforhodamine B assay; assay type: functional, cell-based; settings: PC-3, 48 h
HCT-116 [2] = test: Cytotoxicity against human HCT116 cells assessed as growth inhibition after 48 hrs by sulforhodamine B assay; assay type: functional, cell-based; settings: HCT-116, 48 h
COLO 205 [3] = test: Cytotoxicity against human COLO205 cells assessed as growth inhibition after 48 hrs by sulforhodamine B assay; assay type: functional, cell-based; settings: COLO 205, 48 h
THP-1 [4] = test: Cytotoxicity against human THP1 cells assessed as growth inhibition after 48 hrs by sulforhodamine B assay; assay type: functional, cell-based; settings: THP-1, 48 h
[5] = Cytotoxicity against human MIAPaCa2 cells assessed as growth inhibition at 50 uM after 48 hrs by sulforhodamine B assay relative to control; assay type: functional; settings: MIA PaCa-2, 48 h, read-out: GI
PC-3 [6] = test: Cytotoxicity against human PC3 cells assessed as growth inhibition at 50 uM after 48 hrs by sulforhodamine B assay relative to control; assay type: functional; settings: PC-3, 48 h, read-out: GI
CAKI-1 = test: Cytotoxicity against human Caki1 cells assessed as growth inhibition at 50 uM after 48 hrs by sulforhodamine B assay relative to control; assay type: functional; settings: CAKI-1, 48 h, read-out: GI
HeLa = test: Cytotoxicity against human HeLa cells assessed as growth inhibition at 50 uM after 48 hrs by sulforhodamine B assay relative to control; assay type: functional; settings: read-out: GI
A549 = test: Cytotoxicity against human A549 cells assessed as growth inhibition at 50 uM after 48 hrs by sulforhodamine B assay relative to control; assay type: functional; settings: A549, 48 h, read-out: GI
HCT-116 [7] = test: Cytotoxicity against human HCT116 cells assessed as growth inhibition at 50 uM after 48 hrs by sulforhodamine B assay relative to control; assay type: functional; settings: HCT-116, 48 h, read-out: GI
COLO 205 [8] = test: Cytotoxicity against human COLO205 cells assessed as growth inhibition at 50 uM after 48 hrs by sulforhodamine B assay relative to control; assay type: functional; settings: COLO 205, 48 h, read-out: GI
THP-1 [9] = test: Cytotoxicity against human THP1 cells assessed as growth inhibition at 50 uM after 48 hrs by sulforhodamine B assay relative to control; assay type: functional; settings: THP-1, 48 h, read-out: GI

Row | Structure (SMILES) | IC50 (Tubulin) | IC50 (PC-3 [1]) | IC50 (HCT-116 [2]) | IC50 (COLO 205 [3]) | IC50 (THP-1 [4]) | inhibition of growth at 50 µM [5] | inhibition of growth at 50 µM (PC-3 [6]) | inhibition of growth at 50 µM (CAKI-1) | inhibition of growth at 50 µM (HeLa) | inhibition of growth at 50 µM (A549) | inhibition of growth at 50 µM (HCT-116 [7]) | inhibition of growth at 50 µM (COLO 205 [8]) | inhibition of growth at 50 µM (THP-1 [9])
1 | COc1ccc(/C=C/C(=O)/C=C/c2ccc(OCc3cn(CCN4C(=O)C(=O)c5ccccc54)nn3)c(OC)c2)cc1 | 5.41 µM | 8.95 µM | 3.45 µM | 6.72 µM | 4.96 µM | 17% | 70% | 20% | 15% | 15% | 81% | 72% | 75%
2 | COc1cc(/C=C/C(=O)/C=C/c2ccco2)ccc1OCc1cn(CCN2C(=O)C(=O)c3ccccc32)nn1 | – | 8.4 µM | 4.61 µM | 7.53 µM | 6.56 µM | 10% | 65% | 12% | – | – | 78% | 68% | 72%
3 | COc1ccc(/C=C/C(=O)/C=C/c2ccc(OCc3cn(CCN4C(=O)C(=O)c5ccccc54)nn3)c(OC)c2)cc1OC | 3.97 µM | 7.64 µM | 2.67 µM | 5.78 µM | 4.31 µM | 21% | 79% | 22% | 18% | 19% | 90% | 80% | 82%
4 | COc1ccc(/C=C/C(=O)/C=C/c2ccc(OCc3cn(CCN4C(=O)C(=O)c5cc(Br)ccc54)nn3)c(OC)c2)cc1OC | – | – | – | – | – | 12% | 61% | 10% | 12% | 10% | 69% | 63% | 65%
5 | COc1cccc(/C=C/C(=O)/C=C/c2ccc(OCc3cn(CCN4C(=O)C(=O)c5ccccc54)nn3)c(OC)c2)c1 | – | 9.16 µM | 3.92 µM | 7.34 µM | 4.41 µM | 15% | 66% | 17% | 14% | 13% | 77% | 69% | 70%
6 | COc1ccc(/C=C/C(=O)/C=C/c2ccc(OCc3cn(CCN4C(=O)C(=O)c5cc(Br)ccc54)nn3)c(OC)c2)cc1 | – | – | – | – | – | 10% | 57% | – | 10% | – | 65% | 59% | 60%
7 | COc1ccc(/C=C/C(=O)/C=C/c2ccc(OCc3cn(CCN4C(=O)C(=O)c5cc(Cl)ccc54)nn3)c(OC)c2)cc1 | – | 12.5 µM | 7.81 µM | 11 µM | 9.78 µM | 10% | 60% | – | 12% | 15% | 66% | 63% | 64%
8 | COc1ccccc1/C=C/C(=O)/C=C/c1ccc(OCc2cn(CCN3C(=O)C(=O)c4cc(Cl)ccc43)nn2)c(OC)c1 | – | – | – | – | – | – | 42% | – | – | 11% | 50% | 47% | 43%
9 | COc1cccc(/C=C/C(=O)/C=C/c2ccc(OCc3cn(CCN4C(=O)C(=O)c5cc(Cl)ccc54)nn3)c(OC)c2)c1 | – | – | – | – | – | – | 51% | – | 10% | 13% | 58% | 52% | 55%
10 | COc1cc(/C=C/C(=O)/C=C/c2ccccc2)ccc1OCc1cn(CCN2C(=O)C(=O)c3cc(Cl)ccc32)nn1 | – | – | – | – | – | 13% | 58% | 13% | 14% | 21% | 68% | 63% | 65%
11 | COc1ccc(/C=C/C(=O)/C=C/c2ccc(OCc3cn(CCN4C(=O)C(=O)c5cc(Cl)ccc54)nn3)c(OC)c2)cc1OC | – | 13.7 µM | 6.94 µM | 11.5 µM | 9.33 µM | 12% | 73% | 10% | 13% | 17% | 79% | 75% | 77%
12 | COc1cc(/C=C/C(=O)/C=C/c2cccc3ccccc23)ccc1OCc1cn(CCN2C(=O)C(=O)c3cc(Cl)ccc32)nn1 | – | 14.1 µM | 9.34 µM | 13.6 µM | 11.1 µM | – | 71% | – | – | – | 78% | 74% | 76%
13 | COc1ccccc1/C=C/C(=O)/C=C/c1ccc(OCc2cn(CCN3C(=O)C(=O)c4ccccc43)nn2)c(OC)c1 | – | 8.97 µM | 4.56 µM | 8.16 µM | 6.34 µM | 13% | 64% | 15% | 12% | 11% | 75% | 67% | 70%
14 | COc1cc(/C=C/C(=O)/C=C/c2ccccc2)ccc1OCc1cn(CCN2C(=O)C(=O)c3cc(Br)ccc32)nn1 | – | – | – | – | – | 16% | 50% | 12% | 14% | 11% | 56% | 51% | 54%
15 | COc1cc(/C=C/C(=O)/C=C/c2cc(OC)c(OC)c(OC)c2)ccc1OCc1cn(CCN2C(=O)C(=O)c3cc(Br)ccc32)nn1 | – | 6.44 µM | 2.92 µM | 5.29 µM | 3.14 µM | 15% | 69% | 12% | 15% | 13% | 75% | 70% | 73%
16 | COc1cc(/C=C/C(=O)/C=C/c2ccc(Br)cc2)ccc1OCc1cn(CCN2C(=O)C(=O)c3cc(Cl)ccc32)nn1 | – | – | – | – | – | – | 23% | – | – | – | 24% | 20% | 25%
17 | COc1cc(/C=C/C(=O)/C=C/c2cccc(Br)c2)ccc1OCc1cn(CCN2C(=O)C(=O)c3cc(Cl)ccc32)nn1 | – | – | – | – | – | – | 14% | – | – | – | 19% | 10% | 12%
18 | COc1cc(/C=C/C(=O)/C=C/c2cc(OC)c(OC)c(OC)c2)ccc1OCc1cn(CCN2C(=O)C(=O)c3cc(Cl)ccc32)nn1 | – | 7.14 µM | 2.17 µM | 5.97 µM | 4.56 µM | 13% | 80% | 13% | 15% | 22% | 89% | 84% | 86%
19 | COc1cc(/C=C/C(=O)/C=C/c2cccs2)ccc1OCc1cn(CCN2C(=O)C(=O)c3ccccc32)nn1 | – | 8.51 µM | 5.09 µM | 7.72 µM | 6.83 µM | – | 63% | 10% | – | – | 76% | 66% | 71%
20 | COc1cc(/C=C/C(=O)/C=C/c2ccco2)ccc1OCc1cn(CCN2C(=O)C(=O)c3cc(Br)ccc32)nn1 | – | – | – | – | – | – | 31% | – | – | – | 39% | 33% | 37%
21 | COc1cc(/C=C/C(=O)/C=C/c2cccc(Br)c2)ccc1OCc1cn(CCN2C(=O)C(=O)c3ccccc32)nn1 | – | – | – | – | – | – | 35% | – | – | – | 42% | 36% | 40%
22 | COc1cc(/C=C/C(=O)/C=C/c2ccccc2)ccc1OCc1cn(CCN2C(=O)C(=O)c3ccccc32)nn1 | – | 9.56 µM | 5.16 µM | 8.28 µM | 7.64 µM | 20% | 60% | 15% | 12% | 10% | 71% | 64% | 66%
